Measured values from BindingDB's records for patent US9175357 (University of South Carolina, 2015).

Target: Serine/threonine-protein kinase PLK1 (Homo sapiens, UniProt P53350)
Experiment: Fluorescent Polarization Binding Assay
Conditions: pH 8; 25 °C

Chain of Serine/threonine-protein kinase PLK1 (P53350 whole entry): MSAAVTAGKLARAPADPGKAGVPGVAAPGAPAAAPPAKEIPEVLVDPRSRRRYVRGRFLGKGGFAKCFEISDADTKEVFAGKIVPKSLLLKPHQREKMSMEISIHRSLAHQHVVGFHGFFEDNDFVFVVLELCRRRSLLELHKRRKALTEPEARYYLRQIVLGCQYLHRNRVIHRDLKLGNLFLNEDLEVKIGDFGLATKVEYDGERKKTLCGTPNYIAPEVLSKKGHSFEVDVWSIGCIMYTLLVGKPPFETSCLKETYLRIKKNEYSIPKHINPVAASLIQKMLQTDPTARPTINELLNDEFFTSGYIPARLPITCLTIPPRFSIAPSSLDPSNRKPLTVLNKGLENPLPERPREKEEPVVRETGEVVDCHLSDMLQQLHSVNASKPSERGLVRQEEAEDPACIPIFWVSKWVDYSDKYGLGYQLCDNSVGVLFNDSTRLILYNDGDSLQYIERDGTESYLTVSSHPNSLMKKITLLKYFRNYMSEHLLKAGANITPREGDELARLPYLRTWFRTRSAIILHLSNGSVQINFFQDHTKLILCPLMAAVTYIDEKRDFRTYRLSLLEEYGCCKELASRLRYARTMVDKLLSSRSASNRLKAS

## CNC(=O)c1cc(CCCN2CCOCC2)n(-c2ccccc2)c1C [US9175357, 5600]
  IC50: 550 µM
